Among the data in patent publication US20070010671A1, “Novel quinazoline derivatives and methods of treatment related to the use thereof” (priority 2003, published 2007) are class values, retold here.

This assay concerns the target MCH receptor (Homo sapiens, UniProt Q99705). In words: High throughput functional screening FLIPR/FDSS6000: inhibition of MCH-evoked intracellular Ca2+ changes. The following applies: class by percent of control at 10^-7 M or IC50. Type of assay: cell-based. In outline:
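Constitutively active non-endogenous MCH-R cells; Fluo4-AM 4 μM, 2.5 mM probenecid, 1 hr, 37° C; cpd 3 min, 37° C; MCH 50 nM (antagonist mode); kinetic Ca2+ read Ex488/Em530, 290 s.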

Molecules are shown by their SMILES.

Regarding `COc1ccc(NC(=O)N[C@H]2CC[C@@H](Nc3nc(N(C)C)c4ccccc4n3)CC2)cc1OC1CCCC1` [compound 342, N-[3-(cyclopentyloxy)-4-methoxyphenyl]-N′-(cis-4-{[4-(dimethylamino)quinazolin-2-yl]amino}cyclohexyl)urea], the class is recorded as 1 (Class 1: The value of percent of control at 10^−7 M was less than 40% or the value of IC50 was less than 50 nM.).

As to `CN(C)c1nc(N[C@H]2CC[C@@H](NC(=O)Nc3ccc4c(c3)OCCCO4)CC2)nc2ccccc12` [compound 343, N-(3,4-dihydro-2H-1,5-benzodioxepin-7-yl)-N′-(cis-4-{[4-(dimethylamino)quinazolin-2-yl]amino}cyclohexyl)urea], the class was 1 (Class 1: The value of percent of control at 10^−7 M was less than 40% or the value of IC50 was less than 50 nM.). The figure for `CN(C)c1nc(N[C@H]2CC[C@@H](NC(=O)Nc3ccsc3)CC2)nc2ccccc12` [compound 344] is 3 (Class 3: The value of percent of control at 10^−7 M was more than 60% or the value of IC50 was more than 200 nM.); for `CN(C)c1nc(N[C@H]2CC[C@@H](NC(=O)Nc3ccc(C(C)(C)C)cc3)CC2)nc2ccccc12` [compound 345] it is 3 (Class 3: The value of percent of control at 10^−7 M was more than 60% or the value of IC50 was more than 200 nM.); for `CCCCc1ccc(NC(=O)N[C@H]2CC[C@@H](Nc3nc(N(C)C)c4ccccc4n3)CC2)c(C)c1` [compound 346] it is 1 (Class 1: The value of percent of control at 10^−7 M was less than 40% or the value of IC50 was less than 50 nM.). In the case of `Cc1cc(NC(=O)N[C@H]2CC[C@@H](Nc3nc(N(C)C)c4ccccc4n3)CC2)c(C(F)(F)F)o1` [compound 347, N-(cis-4-{[4-(dimethylamino)quinazolin-2-yl]amino}cyclohexyl)-N′-[5-methyl-2-(trifluoromethyl)-3-furyl]urea], the class is on record as 1 (Class 1: The value of percent of control at 10^−7 M was less than 40% or the value of IC50 was less than 50 nM.). For the compound `CN(C)c1nc(N[C@H]2CC[C@@H](NC(=O)Nc3ccc(-c4ccccc4)s3)CC2)nc2ccccc12` [compound 348], the class was 3 (Class 3: The value of percent of control at 10^−7 M was more than 60% or the value of IC50 was more than 200 nM.).

With `CN(C)c1nc(N[C@H]2CC[C@@H](NC(=O)Nc3cc(F)cc4c3OCOC4)CC2)nc2ccccc12` [compound 349, N-(cis-4-{[4-(dimethylamino)quinazolin-2-yl]amino}cyclohexyl)-N′-(6-fluoro-4H-1,3-benzodioxin-8-yl)urea], the class is 2 (Class 2: The value of percent of control at 10^−7 M was from 40% to 60% or the value of IC50 was from 50 nM to 200 nM.). The figure for `CN(C)c1nc(N[C@H]2CC[C@@H](NC(=O)NC3CCN(C(=O)OCc4ccccc4)CC3)CC2)nc2ccccc12` [compound 350] is 3 (Class 3: The value of percent of control at 10^−7 M was more than 60% or the value of IC50 was more than 200 nM.). As for `CN(C)c1ccc(NC(=O)N[C@H]2CC[C@@H](Nc3nc(N(C)C)c4ccccc4n3)CC2)cc1` [compound 351], the class is reported as 3 (Class 3: The value of percent of control at 10^−7 M was more than 60% or the value of IC50 was more than 200 nM.).

Take `CN(C)c1nc(N[C@H]2CC[C@@H](NC(=O)Nc3cc(Cl)nc(Cl)c3)CC2)nc2ccccc12` [compound 352]: the class is 3 (Class 3: The value of percent of control at 10^−7 M was more than 60% or the value of IC50 was more than 200 nM.).

Turning to `Cc1noc(C)c1NC(=O)N[C@H]1CC[C@@H](Nc2nc(N(C)C)c3ccccc3n2)CC1` [compound 353, N-(cis-4-{[4-(dimethylamino)quinazolin-2-yl]amino}cyclohexyl)-N′-(3,5-dimethylisoxazol-4-yl)urea], the class is 2 (Class 2: The value of percent of control at 10^−7 M was from 40% to 60% or the value of IC50 was from 50 nM to 200 nM.). `Cc1noc(-c2ccccc2)c1NC(=O)N[C@H]1CC[C@@H](Nc2nc(N(C)C)c3ccccc3n2)CC1` [compound 354, N-(cis-4-{[4-(dimethylamino)quinazolin-2-yl]amino}cyclohexyl)-N′-(3-methyl-5-phenylisoxazol-4-yl)urea]: the class is listed as 1 (Class 1: The value of percent of control at 10^−7 M was less than 40% or the value of IC50 was less than 50 nM.).

With `Cc1onc(-c2ccccc2)c1NC(=O)N[C@H]1CC[C@@H](Nc2nc(N(C)C)c3ccccc3n2)CC1` [compound 355, N-(cis-4-{[4-(dimethylamino)quinazolin-2-yl]amino}cyclohexyl)-N′-(5-methyl-3-phenylisoxazol-4-yl)urea], the class is given as 1 (Class 1: The value of percent of control at 10^−7 M was less than 40% or the value of IC50 was less than 50 nM.). Consider `C#CCNC(=S)N[C@H]1CC[C@@H](Nc2nc(N(C)C)c3ccccc3n2)CC1` [compound 356], for which the class is on record as 3 (Class 3: The value of percent of control at 10^−7 M was more than 60% or the value of IC50 was more than 200 nM.). For `CN(C)c1nc(N[C@H]2CC[C@@H](NC(=S)Nc3ccc(S(=O)(=O)N4CCCCC4)cc3)CC2)nc2ccccc12` [compound 357], the class is recorded as 3 (Class 3: The value of percent of control at 10^−7 M was more than 60% or the value of IC50 was more than 200 nM.). `CN(C)c1nc(N[C@H]2CC[C@@H](NC(=S)NCCC3=CCCCC3)CC2)nc2ccccc12` [compound 358]: the class is 2 (Class 2: The value of percent of control at 10^−7 M was from 40% to 60% or the value of IC50 was from 50 nM to 200 nM.). The figure for `Cc1cccc(NC(=S)N[C@H]2CC[C@@H](Nc3nc(N(C)C)c4ccccc4n3)CC2)c1C` [compound 359, N-(cis-4-{[4-(dimethylamino)quinazolin-2-yl]amino}cyclohexyl)-N′-(2,3-dimethylphenyl)thiourea] is 1 (Class 1: The value of percent of control at 10^−7 M was less than 40% or the value of IC50 was less than 50 nM.). For `CN(C)c1nc(N[C@H]2CC[C@@H](NC(=S)Nc3c(F)cc(Br)cc3Br)CC2)nc2ccccc12` [compound 360, N-(2,4-dibromo-6-fluorophenyl)-N′-(cis-4-{[4-(dimethylamino)quinazolin-2-yl]amino}cyclohexyl)thiourea], the class is 1 (Class 1: The value of percent of control at 10^−7 M was less than 40% or the value of IC50 was less than 50 nM.).

For the compound `Cc1cc(Cl)cc(Cl)c1NC(=S)N[C@H]1CC[C@@H](Nc2nc(N(C)C)c3ccccc3n2)CC1` [compound 361, N-(2,4-dichloro-6-methylphenyl)-N′-(cis-4-{[4-(dimethylamino)quinazolin-2-yl]amino}cyclohexyl)thiourea], the class is reported as 1 (Class 1: The value of percent of control at 10^−7 M was less than 40% or the value of IC50 was less than 50 nM.). As for `Cc1ccc(C)c(NC(=S)N[C@H]2CC[C@@H](Nc3nc(N(C)C)c4ccccc4n3)CC2)c1` [compound 362, N-(cis-4-{[4-(dimethylamino)quinazolin-2-yl]amino}cyclohexyl)-N′-(2,5-dimethylphenyl)thiourea], the class is recorded as 2 (Class 2: The value of percent of control at 10^−7 M was from 40% to 60% or the value of IC50 was from 50 nM to 200 nM.).
